Data published in US9751875B2, “Quinine compounds, and optical isomers, preparation method and medical use thereof” (BEIJING FSWELCOME TECHNOLOGY DEVELOPMENT CO., LTD., priority 2013, dated 2017).
Where two headings read alike, the source gives them in different places.

How the values were obtained:
[1] = test system: tracheal smooth muscle from guinea pigs (contraction induced by 3 × 10^−6 mol/L of CCh); assay: Antagonism in vitro of contraction of isolated tracheal smooth muscle from guinea pigs induced by carbachol (CCh); format: cell-based, guinea pig
[2] = test system: tracheal smooth muscle from guinea pigs (contraction induced by 3 × 10^−6 mol/L of CCh); assay: as above; format: cell-based, guinea pig; remark: listed apart in the source
[3] = test system: bronchus in guinea pigs (contractile response induced by Mch); assay: Antagonism of contractile response of bronchus in guinea pigs induced by methacholine (Mch); airway resistance and pulmonary dynamic compliance; format: in vivo, guinea pig; conditions: Mch 10 μg/kg iv after 30 min; for Cdyn(ml/cm H2O) / Raw (cm H2O/ml/s): Mean ± S.E.M
Excerpt: Determination of tidal volume, airway flow rate, and transpulmonary pressure: 1.5 g/kg of urethane was intraperitoneally injected to narcotize the guinea pig. The guinea pig was fixed supinely and treated with tracheal intubation, and the external jugular vein was separated and an indwelling needle was inserted; the guinea pig was enclosed into a body plethysmograph, a blunt needle for intubation into thoracic cavity was inserted between ribs 4˜5 of the prothorax of the guinea pig, and the intrathoracic pressure could be measured (with a negative value of a water column of a water manometer and a fluctuation with the breath of the guinea pig as marks). After stabilization, the values of the tidal volume, airway flow rate and transpulmonary pressure of the guinea pig prior to administration of Mch were recorded by a MedLab biological signal collection and processing system as base values. 10 μg/kg body weight of Mch was intravenously injected. The changes of the airway flow rate, tidal volume and transpulmonary pressure of the guinea pig within 5 minutes were observed. Calculation of Raw and Cdyn: the changes of the increased percentage of Raw value and the decreased percentage of Cdyn after […] of Mch were calculated.
Calculation formulas of Raw and Cdyn were respectively: […]
Dose-effect relationship: For each of the example compounds, 27 guinea pigs were randomly divided into […]: a solvent control group with […], a group with 1 μg/kg of the example compounds 4, 10, 14, and 26, a group with 3 μg/kg of the example compounds 4, 10, 14, and 26 and a group with 10 μg/kg of the example compounds 4, 10, 14, and 26; after 30 min from the dropping of the above concentration of drugs in the airway, 10 μg/kg body weight of Mch was intravenously injected for excitation, and airway resistance (Raw) and pulmonary dynamic compliance (Cdyn) within 5 min were determined. […]

[4] = test system: m1, m2 and m3 subtypes of M receptor; assay: Competitive [3H]-QNB binding on membranes of CHO cells transfected with m1, m2, m3; selectivity on subtypes of M receptor; conditions: ratio of Ki, n = 6
[5] = read-out: IC50 (μM), antagonism in vitro against the contraction of the tracheal smooth muscle induced by CCh; 3 × 10^−6 mol/L of CCh; cumulative dosing

| Compound | Onset time [1] | Time for eliminating inhibition effect (min) [1] | IC50 [2, 5] | inhibition ratio against the decrease of pulmonary dynamic compliance ([3]; 1 μg/kg dropped in the airway) | inhibition ratio against the increase of airway resistance ([3]; 1 μg/kg dropped in the airway) | Cdyn(ml/cm H2O) ([3]; 1 μg/kg dropped in the airway) | Raw (cm H2O/ml/s) ([3]; 1 μg/kg dropped in the airway) | inhibition ratio against the decrease of pulmonary dynamic compliance ([3]; 3 μg/kg dropped in the airway) | inhibition ratio against the increase of airway resistance ([3]; 3 μg/kg dropped in the airway) | Cdyn(ml/cm H2O) ([3]; 3 μg/kg dropped in the airway) | Raw (cm H2O/ml/s) ([3]; 3 μg/kg dropped in the airway) | inhibition ratio against the decrease of pulmonary dynamic compliance ([3]; 10 μg/kg dropped in the airway) | inhibition ratio against the increase of airway resistance ([3]; 10 μg/kg dropped in the airway) | Cdyn(ml/cm H2O) ([3]; 10 μg/kg dropped in the airway) | Raw (cm H2O/ml/s) ([3]; 10 μg/kg dropped in the airway) | Selectivity m1/m2, Mx/My = Ki(y)/Ki(x) [4] | Selectivity m1/m3, Mx/My = Ki(y)/Ki(x) [4] | Selectivity m2/m3, Mx/My = Ki(y)/Ki(x) [4] | IC50 ([2]; 3 × 10^−6 mol/L of CCh; cumulative dosing; read-out: IC50 (μM), antagonism in vitro against the contraction of the tracheal smooth muscle induced by CCh) |
| --- | --- | --- | --- | --- | --- | --- | --- | --- | --- | --- | --- | --- | --- | --- | --- | --- | --- | --- | --- |
| OC(CO[C@@H]1C[N+]2(CCCOc3ccccc3)CCC1CC2)(c1ccccc1)C1CCCC1.[Br-] (stereo partly drawn) [Example 4, (2R,3R)-3-[(2-cyclopentyl-2-hydroxyl-2-phenyl)ethoxyl]-1-(3-phenoxypropyl)-1-azabicyclo[2,2,2]octane bromide] | 6.37 min | more than 300 min | 0.0278 µM | 11.2% | 64.2% | 0.105 ± 0.012 ml/cm H2O | 0.733 ± 0.088 cm H2O/ml/s | 46.6% | 86.1% | 0.137 ± 0.015 ml/cm H2O | 0.552 ± 0.060 cm H2O/ml/s | 50.0% | 90.8% | 0.196 ± 0.017 ml/cm H2O | 0.513 ± 0.071 cm H2O/ml/s | 30.2 | 0.332 | 0.011 | – |
| OC(CO[C@H]1C[N+]2(CCCOc3ccccc3)CCC1CC2)(c1ccccc1)C1CCC1.[Br-] (stereo partly drawn) [Example 14, (2S,3S)-3-[(2-cyclobutyl-2-hydroxyl-2-phenyl)ethoxyl]-1-(3-phenoxypropyl)-1-azabicyclo[2,2,2]octane bromide] | 6.34 min | more than 300 min | 4.87 µM | 11.0% | 63.5% | 0.101 ± 0.010 ml/cm H2O | 0.719 ± 0.082 cm H2O/ml/s | 46.1% | 85.4% | 0.141 ± 0.014 ml/cm H2O | 0.560 ± 0.062 cm H2O/ml/s | 49.5% | 90.5% | 0.207 ± 0.018 ml/cm H2O | 0.504 ± 0.073 cm H2O/ml/s | 25.6 | 0.205 | 0.008 | – |
| (2R,3S),(2S,3R)-3-[(2-cyclopentyl-2-hydroxyl-2-phenyl)ethoxyl]-1-(3-phenoxypropyl)-1-azabicyclo[2,2,2]octane bromide [Example 5] | 7.01 min | more than 300 min | – | – | – | – | – | – | – | – | – | – | – | – | – | 45.6 | 0.502 | 0.011 | 1.03 µM |
